From patent publication US20100041679A1, “ORAL DIETING COMPOSITION COMPRISING CONJUGATED LINOLEIC ACID AND CAFFEINE” (Institut Phytoceutic, priority 2004, published 2010)

Test: Additional study on 24 people with excess weight, formulations given orally, two sachets/day for one month, weight loss
Format: in vivo, human
Conditions: oral route
Experimental: An additional study was carried out on 24 people with excess weight, to whom the formulations of the following table were administered by the oral route, in an amount of two sachets/day for one month, without changing their dietary habits.

In the case of Conjugated linoleic acid, the “weight loss observed, significance in words” value is reported as “not significant” and the “Weight loss observed (as % by weight)” value (dietary habits unchanged) is reported as −1.8 (N.S.) % by weight.
